“And” between values parts separate entries of the source, which are not always exact repeats. Equal values may be shown once. “Also recorded” adds a separate entry of the source. Each block holds one compound with its values, some of them ahead of it.
Experiments:
[1] = pKa of conjugate acid by 1H NMR titration (nonfluorinated analogues); format: physicochemical; conditions: aqueous solutions of different pH, conjugate acid (pyridinium), water
Protocol: (§1) The measurements were conducted on the corresponding conjugate acids of the thiofluoroalkylpyridines using an ^19F NMR method developed by Leito and coworkers. For nonfluorinated analogues, pK a was determined by an analogous method using ^1H NMR. […] Likewise, internal difluorination of the thioethyl group led to a more acidic pyridinium (9, pK a 2.05) compared to terminal difluorination (6, pK a 2.43). […] Computationally, it is straightforward to determine pK a values for molecular organic systems, obtaining quantitative predictions via fitting to experimental data (Table S12).
A protocol developed by the group of Leito was followed for the determination of the […] of fluorinated 2-substituted pyridines using ^19F NMR. […] Next, the tube was caped and shaken vigorously, and the pH of the resulting solution was measured inside the tube with a pH meter with an NMR-tube probe. […] Next, a standard ^19F NMR experiment was recorded to determine the chemical shifts of the external standard and the sample of interest. […] The battery of NMR samples at different pH values was measured. • Data processing: using MestReNova NMR software, the chemical shifts of the pyridines were determined. […] Next, the selected signal for each pyridine was plotted against the pH of the measured solution. […]

[2] = logD7.4 by shake-flask HPLC-UV for nonfluorinated pyridines; format: physicochemical; conditions: for logD: 1-octanol/phosphate buffer, pH 7.4, 1-octanol/phosphate buffer pH 7.4, HPLC-UV; for logD / logD7.4: nonfluorinated pyridines, mean of three; for logD7.4: 1-octanol/phosphate buffer pH 7.4, HPLC-UV; for logD (single sample A, B, C): Table S2, individual HPLC-UV partitionings at different buffer:octanol volume ratios, pH 7.4
Protocol: A protocol described by Ràfols and coworkers was followed for the determination of the log D ^7.4 values of the nonfluorinated pyridines. The 4-step process was replicated three times for each compound: • Stocksolution preparation: in a 12 mL vial, 15 mg of the pyridine was charged. Then, 6 mL of phosphate buffer at pH 7.4 was added, and the mixture was vigorously shaken for 2 h. An aliquot of this stock solution was measured by HPLC-UV. • Partitioning: three partitioning experiments were carried out for each compound. To prepare an experiment, in a vial containing a magnetic stir bar, a known amount of the stock solution was introduced, followed by another known amount of 1-octanol. Next, the biphasic mixture was stirred for 2 h and left to stand overnight to allow phase partition. For the selection of the different volume ratios, it was followed reported recommendations, although 1:1, 10:1, and 1:10 octanol:stock solutions were usually employed. • Sample preparation and measurement: to prepare the sample, 0.1 mL of the aqueous phase was taken and introduced in a 2 mL vial, following the precautions described in the previous section. The samples were then analyzed with the same HPLC-UV method as that of the stock solution. The log D ^7.4 value was obtaining by comparing the initial amount of pyridine in the aqueous phase before and after partitioning, taking into consideration the volume rates.

[3] = pKa of conjugate acid by 19F NMR titration (Leito method); format: physicochemical; conditions: aqueous solutions of different pH, conjugate acid (pyridinium), water
Protocol: as §1
A protocol developed by the group of Leito was followed for the determination of the […] of fluorinated 2-substituted pyridines using ^19F NMR. […] Next, the tube was caped and shaken vigorously, and the pH of the resulting solution was measured inside the tube with a pH meter with an NMR-tube probe. This procedure was repeated for all of the aqueous solutions to have a battery of NMR tubes at different pH values. If needed, additional solutions were prepared to ensure a continuum of pH values. • Sample measurement: for ^19F NMR measurements, a 3 mm NMR tube containing a solution of 8 mg of KF in 1 mL of D2O was inserted into the NMR tube of interest to serve as an external standard. Next, a standard ^19F NMR experiment was recorded to determine the chemical shifts of the external standard and the sample of interest. For the ^1H method, the same protocol was applied by changing the external standard for 5 μL of trifluoroethanol instead of KF. The battery of NMR samples at different pH values was measured. • Data processing: using MestReNova NMR software, the chemical shifts of the pyridines were determined. For ^19F NMR experiments, the KF reference was set to −125.00 ppm, and the closest ^19F signal of the pyridine was chosen for the chemical shift determination. For ^1H NMR experiments, the trifluoroethanol reference (CF3CH2OH) was set to 3.14 ppm, and the methyl signals of the nonfluorinated pyridines were chosen for the chemical shift determination. Next, the selected signal for each pyridine was plotted against the pH of the measured solution. Using Prism GraphPad software, a sigmoidal curve was adjusted, and the second derivate was performed to obtain the pK a value of the given pyridine.

[4] = logD7.4 by 19F NMR shake-flask partitioning (Linclau method); format: physicochemical; conditions: for logD: 1-octanol/phosphate buffer; for logD (single replicate): Table S1, individual 19F NMR partitioning experiments
Protocol: LogD ^7.4 (pH 7.4) measurements of the 2-(thiofluoroalkyl)-pyridines were conducted according to a method developed by Linclau and coworkers, a variation on the traditional “shake-flask” partitioning between octanol and water. Together with a fluorinated internal standard of known lipophilicity, simple ^19F NMR experiments allowed for the calculation of the logD ^7.4 value of the compound of interest through integration of NMR signals in each phase. During our experiments, no difference between logD ^7.4 and logP values was observed, probably due to the low basicity of the pyridines. Nonetheless, for the sake of consistency, logD ^7.4 was deemed the appropriate parameter for evaluating lipophilicity.
A protocol developed by the group of Linclau was followed for the determination of the log D ^7.4 values of the 2-substituted pyridines. The 4-step process was replicated three times for each compound: • Partitioning: to a 10 mL pear-shaped flask were added 2 mL of 1-octanol, 2-substituted pyridine (1–10 mg), trifluoroethanol (5 μL), and 2 mL of phosphate buffer (pH 7.4). The resulting mixture was stirred at 25 °C for 2 h by controlling the temperature by an immersion cooler, and then, it was left to stand at 25 °C overnight to enable complete phase separation. • Sample preparation: using a 1 mL disposable syringe, an aliquot of 0.6 mL was carefully taken from the aqueous or the 1-octanol phase. Next, the needle was carefully wiped with a dry tissue, and the aliquot was placed into an NMR tube, followed by addition of 0.1 mL of acetone-d 6. The NMR tubes were sealed using a rubber septum stopper and shaken to obtain a homogeneous solution for NMR measurement. When taking an aliquot of the lower water phase, to avoid the contamination of the syringe with the upper octanol phase, 0.05 mL of air was taken into the syringe before putting the needle into the solution, and while immersing it through the upper octanol layer, the air was gently pushed out. Upon reaching the water phase, all air bubbles are pushed out of the syringe, the aliquot is taken, and the needle is quickly removed from the solution. Then, a small amount of the water phase was discarded to ensure all traces of octanol are out of the needle, leaving a 0.6 mL sample in the syringe. • NMR measurement: fluorine (^19F{1H} NMR) nuclear magnetic resonance spectra were recorded on a Varian Mercury spectrometer or Bruker Avance Ultrashield (376.5 MHz for ^19F NMR). Parameters used in the determination of lipophilicities were obtained from the experiments carried out by Linclau and coworkers. First, the sealed tube was inserted to the NMR spectrometer, and following automatic locking and gradient shimming, a simple ^19F spectrum was recorded on the nonspinning sample to assess the required spectral width (SW) and frequency offset point (O1P). The O1P is centered between the two diagnostic F signals, and the spectral width (SW) is left at 200 ppm (it can be reduced if a better S/N ratio is required). Then, the 90° pulse was measured with the automated pulsecal routine obtaining a power (PW) of 16 μs. The measured 90° pulse, SW, and O1P were transferred into the inversion–recovery experiment. For practical purposes, it is recommended to use a D1 of 30 s for the octanol sample and of 60 s for the water sample as pulse delay, given the D1 value should be greater than 5*T1 for quantitative integration. The number of transients (NS) is selected for each sample to afford a suitable signal-to-noise ratio (SNR should be >250). • Data processing:data were processed using Mestre Nova NMR software. The obtained FID file was reprocessed using the following conditions: WFunction (LB = 2, exponential), zero filling (increasing points from 65,536 to 262,144) and then Fourier transform, followed by phasing with mouse and auto baseline correction. The integration ratio was obtained by manual integration.

[5] = stability in aqueous media during logD measurement; format: physicochemical; conditions: during logD7.4 measurement period
Text: The computational model can also be employed to predict the lipophilicity of experimentally undetermined compounds such as pyridines 21 and 22 (Figure ).

[6] = design: method as in earlier work; conditions: thiofluoroalkyl benzenes; logP (=logD7.4) measured indirectly by HPLC retention times; ref 36 (SI), O'Hagan group; cited from earlier work
[7] = pH 7.4, 1-octanol/phosphate buffer pH 7.4, 25 °C, trifluoroethanol reference, 19F NMR, mean of three, read-out: logD7.4
[8] = pH 7.4, Table S1, individual 19F NMR partitioning experiments, pH 7.4, read-out: logD (single replicate)

Compound: CSc1ccccn1 [Compound 1, 2-(methylthio)pyridine]
pKa [1]: 3.69
logD [2]: 1.69

Compound: FC(F)Sc1ccccn1 [Compound 2, 2-((Difluoromethyl)thio)pyridine]
pKa [3]: 1.7
logD [4, 7]: 1.95

Compound: FC(F)(F)Sc1ccccn1 [Compound 3, 2-((Trifluoromethyl)thio)pyridine]
pKa [3]: 0.97
logD [4, 7]: 2.13

Compound: CC(F)(F)Sc1ccccn1 [Compound 4, 2-((1,1-Difluoroethyl)thio)pyridine]
pKa [3]: 2.05
logD7.4 ([4]; 1-octanol/phosphate buffer pH 7.4, 25 °C, trifluoroethanol reference, 19F NMR, mean of three): 1.84
logD [4, 7]: 1.82

Compound: CCSc1ccccn1 [Compound 5, 2-(Ethylthio)pyridine]
pKa [1]: 3.68
logD7.4 [2]: 2,26
logD [2]: 2.26

Compound: FC(F)CSc1ccccn1 [Compound 6, 2-((2,2-Difluoroethyl)thio)pyridine]
pKa [3]: 2.43
logD [4, 7]: 2.26

Compound: FC(F)C(F)(F)Sc1ccccn1 [Compound 7, 2-((1,1,2,2-Tetrafluoroethyl)thio)pyridine]
pKa [3]: 1.33
logD [4, 7]: 2.27

Compound: FC(F)(F)CSc1ccccn1 [Compound 8, 2-((2,2,2-Trifluoroethyl)thio)pyridine]
pKa [3]: 1.49
logD [4, 7]: 2.71

Compound: CC(F)(F)Sc1ccccc1 [SCF2CH3 Ph]
logD7.4 (Ph) [6]: 3.38

Compound: FC(F)(F)Sc1ccccc1 [SCF3 Ph]
logD7.4 (Ph) [6]: 3.70

Compound: FC(F)(F)CSc1ccccc1 [SCH2CF3 Ph]
logD7.4 (Ph) [6]: 3.30

Compound: CCSc1ccccc1 [SCH2CH3 Ph]
logD7.4 (Ph) [6]: 3.42

Compound: CSc1ccccc1 [SCH3 Ph]
logD7.4 (Ph) [6]: 2.87

Now from value to compound, other results behind:

pKa [3]: 0.94
logD [4, 7]: 2.76
Compound: FC(F)(F)C(F)(F)Sc1ccccn1 [Compound 9, 2-((Perfluoroethyl)thio)pyridine]

logD [2]: -0.43
logD (single sample A, B, C) [2]: -0,407 and -0,414 and -0,469
Compound: CS(=O)(=O)c1ccccn1 [Compound 10, 2-(Methylsulfonyl)pyridine]

logD [4, 7]: 0.1
logD [4, 8]: 0.093
logD (single replicate) ([4]; pH 7.4): 0,112 and 0,084
Compound: O=S(=O)(CF)c1ccccn1 [Compound 11, 2-((Fluoromethyl)sulfonyl)pyridine]

logD [4, 7]: 0.55
logD [4, 8]: 0.576
logD (single replicate) ([4]; pH 7.4): 0,541 and 0,538
Compound: O=S(=O)(c1ccccn1)C(F)F [Compound 12, 2-((Difluoromethyl)sulfonyl)pyridine]

logD [4, 7]: 1.43
Compound: O=S(=O)(c1ccccn1)C(F)(F)F [Compound 13, 2-((Trifluoromethyl)sulfonyl)pyridine]

logD [4, 7]: -0.21
logD (single replicate) ([4]; pH 7.4): -0,199 and -0,158 and -0,274
Compound: O=S(=O)(CCF)c1ccccn1 [Compound 14, 2-((2-Fluoroethyl)sulfonyl)pyridine]

logD7.4 [2]: -0,07
logD [2]: -0.07
logD (single sample A, B, C) [2]: -0,032 and -0,070 and -0,118
Compound: CCS(=O)(=O)c1ccccn1 [Compound 15, 2-(Ethylsulfonyl)pyridine]

logD [4, 7]: 0.31
logD [4, 8]: 0.304
logD (single replicate) ([4]; pH 7.4): 0,315 and 0,309
Compound: O=S(=O)(CC(F)F)c1ccccn1 [Compound 16, 2-((2,2-Difluoroethyl)sulfonyl)pyridine]

logD [4, 7]: 0.79
logD [4, 8]: 0.786
logD (single replicate) ([4]; pH 7.4): 0,784 and 0,794
Compound: CC(F)(F)S(=O)(=O)c1ccccn1 [Compound 17, 2-((1,1-Difluoroethyl)sulfonyl)pyridine]

logD [4, 7]: 0.81
logD [4, 8]: 0.813
logD (single replicate) ([4]; pH 7.4): 0,802 and 0,803
Compound: O=S(=O)(CC(F)(F)F)c1ccccn1 [Compound 18, 2-((2,2,2-Trifluoroethyl)sulfonyl)pyridine]

logD [4, 7]: 1.43
Compound: O=S(=O)(c1ccccn1)C(F)(F)C(F)F [Compound 19, 2-((1,1,2,2-Tetrafluoroethyl)sulfonyl)pyridine]

logD [4, 7]: 2.21
Compound: O=S(=O)(c1ccccn1)C(F)(F)C(F)(F)F [Compound 20, 2-((Perfluoroethyl)sulfonyl)pyridine]

pKa [3]: 2.43
Compound: FCSc1ccccn1 [Compound 21, 2-((Fluoromethyl)thio)pyridine]
stability in aqueous media [5]: decomposes in water; also recorded: decomposed in aqueous media; also recorded: water-unstable

pKa [3]: 3.08
Compound: FCCSc1ccccn1 [Compound 22]
stability in aqueous media [5]: decomposes in water; also recorded: decomposed in aqueous media; also recorded: water-unstable

From article PMC12124721, “Impact of Fluorine Pattern on Lipophilicity and Acid–Base Properties of 2‑(Thiofluoroalkyl)pyridines: Insights from Experiments and Statistical Modeling” (Journal of Medicinal Chemistry, 2025)
